From US8735398B2 (Bristol-Myers Squibb Company, priority 2009, dated 2014)

System: HCV 1b genotype
Assay: HCV replicon assay (HCV-neo replicon cells, wild-type)
Format: cell-based, Hepatitis C virus
Settings: Hepatitis C virus, HCV 1b genotype replicon; class symbols; read-out: EC50 Range against HCV 1b
In short: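 HCV-neo replicon cells (wild-type) and replicon cells carrying NS5A resistance substitutions were treated with compounds; assay per O'Boyle et al. 2005, with luciferase-reporter read-out variants also used.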

First: O=C(Nc1ccc(-c2cnc(-c3ccc(NC(=O)[C@@H]4CCCN4C(=O)C4CCCCC4)cc3)o2)cc1)[C@@H]1CCCN1C(=O)C1CCCCC1 [XY-15, (2S,2′S)-N,N′-(1,3-oxazole-2,5-diyldi-4,1-phenylene)bis(1-(cyclohexylcarbonyl)-2-pyrrolidinecarboxamide)]
Second: O=C(Nc1ccc(-c2cnc(-c3ccc(NC(=O)[C@@H]4CCCN4C(=O)C4CCOC4)cc3)o2)cc1)[C@@H]1CCCN1C(=O)C1CCOC1 (stereo partly drawn) [XY-18, (2S,2′S)-N,N′-(1,3-oxazole-2,5-diyldi-4,1-phenylene)bis(1-(tetrahydro-3-furanylcarbonyl)-2-pyrrolidinecarboxamide)]
The EC50 of the first is higher: 100 to 999 nM for the first, 4.57 to 99 nM for the second.

First: CC1CC1C(=O)N1CCC[C@H]1C(=O)Nc1ccc(-c2cnc(-c3ccc(NC(=O)[C@@H]4CCCN4C(=O)C4CC4C)cc3)o2)cc1 (stereo partly drawn) [XY-16, (2S,2′S)-N,N′-(1,3-oxazole-2,5-diyldi-4,1-phenylene)bis(1-((2-methylcyclopropyl)carbonyl)-2-pyrrolidinecarboxamide)]
Second: O=C(Nc1ccc(-c2cnc(-c3ccc(NC(=O)[C@@H]4CCCN4C(=O)C4CCCO4)cc3)o2)cc1)[C@@H]1CCCN1C(=O)C1CCCO1 (stereo partly drawn) [XY-31, (2S,2′S)-N,N′-(1,3-oxazole-2,5-diyldi-4,1-phenylene)bis(1-(tetrahydro-2-furanylcarbonyl)-2-pyrrolidinecarboxamide)]
The EC50 of the first is higher: 100 to 999 nM for the first, 4.57 to 99 nM for the second. The second is the more potent here.

Compared with `CC(C)(CCl)C(=O)N1CCC[C@H]1C(=O)Nc1ccc(-c2cnc(-c3ccc(NC(=O)[C@@H]4CCCN4C(=O)C(C)(C)CCl)cc3)o2)cc1` [XY-17, (2S,2′S)-N,N′-(1,3-oxazole-2,5-diyldi-4,1-phenylene)bis(1-(3-chloro-2,2-dimethylpropanoyl)-2-pyrrolidinecarboxamide)], `CCCC(C)(C)C(=O)N1CCC[C@H]1C(=O)Nc1ccc(-c2cnc(-c3ccc(NC(=O)[C@@H]4CCCN4C(=O)C(C)(C)CCC)cc3)o2)cc1` [XY-19, (2S,2′S)-N,N′-(1,3-oxazole-2,5-diyldi-4,1-phenylene)bis(1-(2,2-dimethylpentanoyl)-2-pyrrolidinecarboxamide)] is higher in EC50: 100 to 999 nM for the first, 1000 to 10000 nM for the second.

First: CC[C@@H](C(=O)N1CCC[C@H]1C(=O)Nc1ccc(-c2cnc(-c3ccc(NC(=O)[C@@H]4CCCN4C(=O)[C@H](CC)c4ccccc4)cc3)o2)cc1)c1ccccc1 [XY-20, (2S,2′S)-N,N′-(1,3-oxazole-2,5-diyldi-4,1-phenylene)bis(1-((2R)-2-phenylbutanoyl)-2-pyrrolidinecarboxamide)]
Second: CO[C@@H](C(=O)N1CCC[C@H]1C(=O)Nc1ccc(-c2cnc(-c3ccc(NC(=O)[C@@H]4CCCN4C(=O)[C@H](OC)c4ccccc4)cc3)o2)cc1)c1ccccc1 [XY-26, (2S,2′S)-N,N′-(1,3-oxazole-2,5-diyldi-4,1-phenylene)bis(1-((2R)-2-methoxy-2-phenylacetyl)-2-pyrrolidinecarboxamide)]
The EC50 of the first is lower: 4.57 to 99 nM for the first, 1000 to 10000 nM for the second. The first is the more potent here.

`Cn1ccnc1C(=O)N1CCC[C@H]1C(=O)Nc1ccc(-c2cnc(-c3ccc(NC(=O)[C@@H]4CCCN4C(=O)c4nccn4C)cc3)o2)cc1` [XY-21, (2S,2′S)-N,N′-(1,3-oxazole-2,5-diyldi-4,1-phenylene)bis(1-((1-methyl-1H-imidazol-2-yl)carbonyl)-2-pyrrolidinecarboxamide)] and `Cc1ncccc1C(=O)N1CCC[C@H]1C(=O)Nc1ccc(-c2cnc(-c3ccc(NC(=O)[C@@H]4CCCN4C(=O)c4cccnc4C)cc3)o2)cc1` [XY-30, (2S,2′S)-N,N′-(1,3-oxazole-2,5-diyldi-4,1-phenylene)bis(1-((2-methyl-3-pyridinyl)carbonyl)-2-pyrrolidinecarboxamide)] fall in the same range of EC50: 1000 to 10000 nM for the first, 1000 to 10000 nM for the second.

First: O=C(Nc1ccc(-c2cnc(-c3ccc(NC(=O)[C@@H]4CCCN4C(=O)Cc4ccc(F)cc4)cc3)o2)cc1)[C@@H]1CCCN1C(=O)Cc1ccc(F)cc1 [XY-22, (2S,2′S)-N,N′-(1,3-oxazole-2,5-diyldi-4,1-phenylene)bis(1-((4-fluorophenyl)acetyl)-2-pyrrolidinecarboxamide)]
Second: COc1ccc(C(=O)N2CCC[C@H]2C(=O)Nc2ccc(-c3cnc(-c4ccc(NC(=O)[C@@H]5CCCN5C(=O)c5ccc(OC)cc5)cc4)o3)cc2)cc1 [XY-29, (2S,2′S)-N,N′-(1,3-oxazole-2,5-diyldi-4,1-phenylene)bis(1-(4-methoxybenzoyl)-2-pyrrolidinecarboxamide)]
The EC50 of the first is lower: under 4.57 nM for the first, 100 to 999 nM for the second.

Compared with `CC(=O)N1CCC(C(=O)N2CCC[C@H]2C(=O)Nc2ccc(-c3cnc(-c4ccc(NC(=O)[C@@H]5CCCN5C(=O)C5CCN(C(C)=O)CC5)cc4)o3)cc2)CC1` [XY-23, (2S,2′S)-N,N′-(1,3-oxazole-2,5-diyldi-4,1-phenylene)bis(1-((1-acetyl-4-piperidinyl)carbonyl)-2-pyrrolidinecarboxamide)], `O=C(Nc1ccc(-c2cnc(-c3ccc(NC(=O)[C@@H]4CCCN4C(=O)[C@H]4CCCO4)cc3)o2)cc1)[C@@H]1CCCN1C(=O)[C@H]1CCCO1` [XY-32, (2S,2′S)-N,N′-(1,3-oxazole-2,5-diyldi-4,1-phenylene)bis(1-((2R)-tetrahydro-2-furanylcarbonyl)-2-pyrrolidinecarboxamide)] is lower in EC50: 100 to 999 nM for the first, 4.57 to 99 nM for the second.

First: O=C(Nc1ccc(-c2cnc(-c3ccc(NC(=O)[C@@H]4CCCN4C(=O)CC4CC4)cc3)o2)cc1)[C@@H]1CCCN1C(=O)CC1CC1 [XY-24, (2S,2′S)-N,N′-(1,3-oxazole-2,5-diyldi-4,1-phenylene)bis(1-(cyclopropylacetyl)-2-pyrrolidinecarboxamide)]
Second: O=C(Nc1ccc(-c2cnc(-c3ccc(NC(=O)[C@@H]4CCCN4C(=O)c4ccc[nH]4)cc3)o2)cc1)[C@@H]1CCCN1C(=O)c1ccc[nH]1 [XY-33, (2S,2′S)-N,N′-(1,3-oxazole-2,5-diyldi-4,1-phenylene)bis(1-(1H-pyrrol-2-ylcarbonyl)-2-pyrrolidinecarboxamide)]
The EC50 of the first is lower: 100 to 999 nM for the first, 1000 to 10000 nM for the second.

First: O=C(Nc1ccc(-c2cnc(-c3ccc(NC(=O)[C@@H]4CCCN4C(=O)c4sccc4Cl)cc3)o2)cc1)[C@@H]1CCCN1C(=O)c1sccc1Cl [XY-25, (2S,2′S)-N,N′-(1,3-oxazole-2,5-diyldi-4,1-phenylene)bis(1-((3-chloro-2-thienyl)carbonyl)-2-pyrrolidinecarboxamide)]
Second: Cc1cc(C(=O)N2CCC[C@H]2C(=O)Nc2ccc(-c3cnc(-c4ccc(NC(=O)[C@@H]5CCCN5C(=O)c5cc(C)c(C)o5)cc4)o3)cc2)oc1C [XY-27, (2S,2′S)-N,N′-(1,3-oxazole-2,5-diyldi-4,1-phenylene)bis(1-(4,5-dimethyl-2-furoyl)-2-pyrrolidinecarboxamide)]
The EC50 of the first is higher: 1000 to 10000 nM for the first, 100 to 999 nM for the second. The second is the more potent here.

`Cc1noc(C)c1C(=O)N1CCC[C@H]1C(=O)Nc1ccc(-c2cnc(-c3ccc(NC(=O)[C@@H]4CCCN4C(=O)c4c(C)noc4C)cc3)o2)cc1` [XY-28, (2S,2′S)-N,N′-(1,3-oxazole-2,5-diyldi-4,1-phenylene)bis(1-((3,5-dimethyl-4-isoxazolyl)carbonyl)-2-pyrrolidinecarboxamide)] and `Cc1cc(C(=O)N2CCC[C@H]2C(=O)Nc2ccc(-c3cnc(-c4ccc(NC(=O)[C@@H]5CCCN5C(=O)c5cc(C)oc5C)cc4)o3)cc2)c(C)o1` [XY-34, (2S,2′S)-N,N′-(1,3-oxazole-2,5-diyldi-4,1-phenylene)bis(1-(2,5-dimethyl-3-furoyl)-2-pyrrolidinecarboxamide)] fall in the same range of EC50: 100 to 999 nM for the first, 100 to 999 nM for the second.

Same assay, conditions: Hepatitis C virus, HCV 1b genotype replicon; read-out: EC50 1b

Going from `CC[C@@H](C(=O)N1CCC[C@H]1C(=O)Nc1ccc(-c2cnc(-c3ccc(NC(=O)[C@@H]4CCCN4C(=O)[C@H](CC)c4ccccc4)cc3)o2)cc1)c1ccccc1` [XY-20, (2S,2′S)-N,N′-(1,3-oxazole-2,5-diyldi-4,1-phenylene)bis(1-((2R)-2-phenylbutanoyl)-2-pyrrolidinecarboxamide)] to `O=C(Nc1ccc(-c2cnc(-c3ccc(NC(=O)[C@@H]4CCCN4C(=O)Cc4ccc(F)cc4)cc3)o2)cc1)[C@@H]1CCCN1C(=O)Cc1ccc(F)cc1` [XY-22, (2S,2′S)-N,N′-(1,3-oxazole-2,5-diyldi-4,1-phenylene)bis(1-((4-fluorophenyl)acetyl)-2-pyrrolidinecarboxamide)], the EC50 falls from 62 nM to under 4.5 nM. The second is the more potent here.

`O=C(Nc1ccc(-c2cnc(-c3ccc(NC(=O)[C@@H]4CCCN4C(=O)C4CCCO4)cc3)o2)cc1)[C@@H]1CCCN1C(=O)C1CCCO1` (stereo partly drawn) [XY-31, (2S,2′S)-N,N′-(1,3-oxazole-2,5-diyldi-4,1-phenylene)bis(1-(tetrahydro-2-furanylcarbonyl)-2-pyrrolidinecarboxamide)] showed an EC50 of 54 nM.
